These are literature values, as cited in patent US20060182828A1, “METHODS OF REDUCING LIPID PEROXIDATION AND ACHIEVING RELATED HEALTH BENEFITS BY THE ADMINISTRATION OF TOCOPHEROL AND SESAME LIGNANS” (priority 2005, published 2006).

The IC50 is the midpoint of a concentration-inhibition curve.

One data set deals with mouse skin papillomas. Conditions: induced with 12-0-tetradecanoylphorbol 1 acetate.
Data set [1] deals with LDL.
Data set [2] relates to LDL. The note with it: Cu-ascorbate induced.
A further data set relates to heart disease. The note with it: supplementation with 30 IU to 100 IU.
The test system of data set [3] is peroxisomal palmitoyl Co-A oxidation. Conditions: in vivo.
For data set [4] the following is noted: rats.
Data set [5] concerns sterol regulatory element binding protein-1 (SREBP-1) m RNA. Conditions: 0.4% sesamin diet group.
[6] abbreviates: 32.4 then 64.8 mg, total of 8 weeks.
The mark [7] stands for this setting: hypercholesterolemic men, before.

As for `Oc1ccc(C=Cc2cc(O)cc(O)c2)cc1` [resveratrol], the “reduction of formation of mouse skin papillomas” value in the data set on mouse skin papillomas was 60%.

In the case of `Cc1c(C)c2c(c(C)c1O)CC[C@@](C)(CCC[C@H](C)CCC[C@H](C)CCCC(C)C)O2` [alpha-tocopherol], in the data set on LDL [1], the “formation of 4-hydroxy-2-nonenal (4-HNE), of control values” (from here on “formation of 4-hydroxy-2-nonenal (4-HNE)”) is given as “absolutely no effect” and the “formation of malondialdehyde (MDA), of control values” (shortened to “formation of malondialdehyde (MDA)”) was “absolutely no effect”.

For `Oc1cc2c(cc1[C@H]1OC[C@H]3[C@@H]1CO[C@@H]3c1ccc3c(c1)OCO3)OCO2` [sesaminol], in the data set with LDL [1], the “formation of 4-hydroxy-2-nonenal (4-HNE)” value is 17% and the “formation of malondialdehyde (MDA)” value was 13%. The “inhibited TBARS formation” value in the data set with LDL [1] (0.1 micromolar concentration) is recorded as 82.8%. Besides, the “protection against TBARS formation” value in the data set with LDL [1] (one micromolar concentration) is recorded as 100%. In addition, in the data set with LDL [1] (read-out: IC50, lipid peroxidation of LDL), the IC50 was 36 ± 10 nM. In the data set with LDL [2], the “lag time longer than tetrahydrocurcumin” value is 567% and the “lag time of LDL oxidation” value was 510 min.

As to vitamin E, the “lowers the risk of heart disease” value with heart disease was 41%.

`CC(C)(Sc1cc(C(C)(C)C)c(O)c(C(C)(C)C)c1)Sc1cc(C(C)(C)C)c(O)c(C(C)(C)C)c1` [probucal]: in the data set with LDL [1], the “formation of 4-hydroxy-2-nonenal (4-HNE)” value is listed as “absolutely no effect” and the “formation of malondialdehyde (MDA)” value is given as “absolutely no effect”.

As to `Oc1ccc2c(c1)OCO2` [sesamol], the “reduction of formation of mouse skin papillomas” value in the data set on mouse skin papillomas is 50%.

On to `c1cc2c(cc1[C@H]1OC[C@H]3[C@@H]1CO[C@@H]3c1ccc3c(c1)OCO3)OCO2` [episesamin], for which the “increase of peroxisomal palmitoyl Co-A oxidation rate” value in data set [3] is reported as 5.1 fold.

`Cc1c(O)cc2c(c1C)O[C@](C)(CCC[C@H](C)CCC[C@H](C)CCCC(C)C)CC2` [gamma-tocopherol]: the “gamma tocopherol level in serum” value in data set [4] (serum) is listed as 3 micromoles per liter. The “gamma tocopherol levels in tissues (liver, kidney, brain)” value in data set [4] (tissue) is given as 3 nmol per gram.

Take `c1cc2c(cc1[C@H]1OC[C@H]3[C@@H]1CO[C@@H]3c1ccc3c(c1)OCO3)OCO2` [sesamin]: under setting [6], the “LDL cholesterol, after” value is 156.4; the “apolipoprotein B, after” value is 168.5; the “changes in HDL cholesterol” value was “no changes”; the changes in triglycerides entry is recorded as “no changes”. Under setting [6], the “mean total cholesterol, after” value is 248.3. In addition, under setting [7], the “LDL cholesterol, before” value is listed as 187.1; the “apolipoprotein B, before” value is on record as 188.8; the “mean total cholesterol, before” value is 272.0. Also, the “increase of peroxisomal palmitoyl Co-A oxidation rate” value in data set [3] is recorded as 1.6 fold. The “SREBP-1 m RNA level relative to rats fed a sesamin-free diet” value in data set [5] is on record as “one-half”.
